How the values were obtained:
[1] = tested on: murine adenocarcinoma CaNT tumour; test: CaNT tumour model, ZD6126 and cisplatin, first study (tumour growth delay); type: in vivo; settings: study 1, female CBA mice; ZD6126 100 + 100 mg/kg i.p. 2 h apart on days 0, 2, 4; cisplatin 5 mg/kg i.p. day 0
Procedure: ZD6126 alone was dosed on days 0, 2 and 4 using a split dose regimen of 100 mg/kg ZD6126, followed by a 2 hour interval, followed by a further 100 mg/kg ZD6126; doses were given intraperitoneally (i.p.).
Cisplatin (David Bull Laboratories) alone was dosed at 5 mg/kg i.p on day 0.
The combination treatment consisted of: • Day 0: ZD6126 100 mg/kg i.p., followed by a 2 hour interval, followed by a further 100 mg/kg ZD6126 i.p; and cisplatin 5 mg/kg given 10 minutes before first ZD6126 dose. • Days 2 and 4: ZD6126 100 mg/kg i.p., followed by a 2 hour interval, followed by a further 100 mg/kg ZD6126 i.p.

[2] = tested on: murine adenocarcinoma CaNT tumour; test: CaNT tumour model, ZD6126 and cisplatin, second study (tumour growth delay); type: in vivo; settings: study 2, female CBA mice; ZD6126 100 + 100 mg/kg i.p. 2 h apart on days 0, 4, 7, 11; cisplatin 5 mg/kg i.p. days 0 and 7
Procedure: ZD6126 alone was dosed on days 0, 4, 7 and 11 using a split dose regimen of ZD6126 100 mg/kg i.p., followed by a 2 hour interval, followed by a further 100 mg/kg ZD6126 i.p.. Cisplatin alone was dosed at 5 mg/kg i.p on day 0 and day 7.
The combination treatment consisted of: • Days 0 and 7: ZD6126 100 mg/kg i.p., followed by a 2 hour interval, followed by a further 100 mg/kg ZD6126 i.p.; cisplatin given 10 minutes before first ZD6126 dose. • Days 3, 7 and 10: ZD6126 100 mg/kg i.p., followed by a 2 hour interval, followed by a further 100 mg/kg ZD6126 i.p..

[3] = tested on: human Calu 6 tumour cells; test: Calu 6 tumour model, ZD6126 and cisplatin (tumour growth delay); type: in vivo; settings: athymic nude mice; ZD6126 100 mg/kg i.p. daily x5 (days 0-4 alone, days 1-5 in combination); cisplatin 4 mg/kg i.p. day 0
Procedure: In a second tumour model, Calu 6, the advantage of combining ZD6126 and cisplatin (cis-Platinum(lI)Diammine Dichloride—Sigma P-4394) was confirmed. Athymic nude mice were implanted subcutaneously with 1×10^6 human Calu 6 tumour cells (obtained from American Type Culture Collection, 10801 University Boulevard, Manassas, Va. 20110-2209 Cat. no. HTB-56) and tumours allowed to grow until they were approximately 9 mm in diameter.
Groups of 10 tumour bearing mice were then treated as follows: • ZD6126 alone was dosed 100 mg/kg i.p. on days 0, 1, 2, 3, 4. • Cisplatin alone was dosed 4 mg/kg i.p. on day 0.
In the combination arm cisplatin 4 mg/kg i.p. was dosed on day 0, and ZD6126 100 mg/kg i.p. was dosed on days 1, 2, 3, 4 and 5.

[4] = tested on: murine KHT sarcoma; test: KHT sarcoma tumour model, cisplatin plus ZD6126 (tumour cell survival, excision and colony formation); type: in vivo, mice; settings: 10 mg/kg cisplatin i.p. alone, assessed 24 hours later
Procedure: In the murine KHT sarcoma model (Lingyun Li, B. S. et al, Int. J. Radiation Oncology Biol. Phys 42, 899-903, 1998) tumours were treated with either 10 mg/kg cisplatin i.p. alone or 10 mg/kg cisplatin plus ZD6126 (10-100 mg/kg i.p.), cisplatin given 1 hour prior to ZD6126. The effects of the treatments on tumour cell survival was assessed 24 hours later by excising the tumour, disaggregating the cells and determining the number of colonies formed after 10-14 days. Surviving fraction compared to untreated cells was then determined.

[5] = tested on: murine KHT sarcoma; test: KHT sarcoma tumour model, ZD6126 and radiation (tumour cell survival, excision and colony formation); type: in vivo, mice
Procedure: The murine KHT sarcoma grown in C3H mice was also used to confirm the advantage of combining ZD6126 and radiation. Tumours were treated with either radiation alone (0, 5, 10, 15 or 20 Gy single dose), ZD6126 100 mg/kg i.p., or radiation followed 1 hour later by ZD6126 100 mg/kg i.p.. The effects of either radiation alone, ZD6126 alone or the combination on tumour cell survival was assessed 24 hours later by excising the tumour, disaggregating the cells and determining the number of colonies formed after 10-14 days. Surviving fraction compared to untreated cells was then determined.

[6] = tested on: murine adenocarcinoma CaNT tumour; test: Cell survival assay, CaNT tumour model: effect of dosage interval; type: in vivo, mice; settings: two doses of 100 mg/kg i.p. separated by 2, 3 or 4 hours; tumours excised about 18 hours after treatment
Procedure: (§1) In vivo cell survival was measured using an excision assay (D J Chaplin et al., Anticancer Research 19: 189-196 (1999)).
(§2) Tumours were excised at about 18 hours after treatment, weighed and disaggregated for 1 hour at 37 degrees Celsius in an enzyme cocktail containing 1 mg/ml pronase, 0.5 mg/ml DNAase and 0.5 mg/ml collagenase. Haemocytometer counts of trypan blue-excluding cells were made and viable cells seeded in appropriate concentrations to yield about 50 colonies/dish after in vitro incubation. Heavily irradiated feeder cells (V79 cells) were used at a concentration of 25,000/ml to support the growth of the surviving CaNT cells. The data were calculated as surviving fraction per gram of tumour.
(§3) ZD6126 was administered as a single dose of […] intra-peritoneally (i.p.) in saline with a small amount of 1% sodium carbonate added to aid the dissolution of ZD6126.
ZD6126 was dosed using a split dose regimen of 100 mg/kg ZD6126, followed by a time interval, followed by a further 100 mg/kg ZD6126; doses were given intraperitoneally (i.p.) in saline with a small amount of 1% sodium carbonate added to aid the dissolution of ZD6126. The time intervals used were 1, 2, 3, 4 and 6 hours.

[7] = tested on: murine adenocarcinoma CaNT tumour; test: Cell survival assay, CaNT tumour model: effect of dosage interval and split dose proportions; type: in vivo, mice
Procedure: as §1, §2
This improved effect varied with the proportion of total dose given in the first and second doses.
as §3
ZD6126 was dosed using split dose regimens of: • i) 25 mg/kg ZD6126, followed by a 2 hour interval, followed by a further 175 mg/kg ZD6126; • ii) 50 mg/kg ZD6126, followed by a 2 hour interval, followed by a further 150 mg/kg ZD6126; • iii) 100 mg/kg ZD6126, followed by a 2 hour interval, followed by a further 100 mg/kg ZD6126; • iv) 150 mg/kg ZD6126, followed by a 2 hour interval, followed by a further 50 mg/kg ZD6126; • v) 175 mg/kg ZD6126, followed by a 2 hour interval, followed by a further 25 mg/kg ZD6126; All doses were given intraperitoneally (i.p.) in saline with a small amount of 1% sodium carbonate added to aid the dissolution of ZD6126.

Structure (SMILES): [NH2][Pt]([NH2])([Cl])[Cl] [Cisplatin, cis-Platinum(lI)Diammine Dichloride]
- Mean growth delay (vs control) - days [1]: 2.1 days
- Mean growth delay (vs control) - days [2]: 7.7 days
- growth delay (time to reach 2× starting volume) compared to control tumours [3]: 6.0 days
- cell killing [4]: approximately 98%

Structure (SMILES): COc1cc2c(c(OC)c1OC)-c1ccc(OP(=O)(O)O)cc1[C@@H](NC(C)=O)CC2 [ZD6126, (5S)-5-(acetylamino)-9,10,11-trimethoxy-6,7-dihydro-5H-dibenzo[a,c]cyclohepten-3-yl dihydrogen phosphate]
- enhanced cell killing over controls ([5]; ZD6126 alone with no radiation): 40 fold
- Plus ZD6126 % cell survival ([5]; radiation dose 0 Gy, ZD6126 100 mg/kg i.p., C3H mice, 24 hours later): 2.5%
- Plus ZD6126 % cell survival ([5]; radiation dose 5 Gy followed 1 hour later by ZD6126 100 mg/kg i.p.): 0.16%
- Plus ZD6126 % cell survival ([5]; radiation dose 10 Gy followed 1 hour later by ZD6126 100 mg/kg i.p.): 0.015%
- Plus ZD6126 % cell survival ([5]; radiation dose 15 Gy followed 1 hour later by ZD6126 100 mg/kg i.p.): 0.0016%
- surviving fraction of tumour cells, divided doses compared with single dose [6]: significantly more effective in this model than a single 200 mg/kg dose
- split dose proportion giving the best anti-tumour effect ([7]; regimen iii) 100 mg/kg + 100 mg/kg, 2 hour interval): best effect was seen with equal split doses
- significance of the greater effect of divided doses over a single dose ([7]; regimens i) 25+175, iii) 100+100 or iv) 150+50 mg/kg, 2 hour interval): significant
- anti-tumour effect, as measured by surviving fraction of tumour cells, divided doses compared with single dose ([7]; total 200 mg/kg i.p. in two doses 2 hours apart, regimens i) to v)): greater with divided doses of ZD6126 than with a single dose of 200 mg/kg ZD6126
